Values of other authors, collected in patent US20150024055A1, “ENHANCED IMMEDIATE RELEASE FORMULATIONS OF TOPIRAMATE” (Supernus Pharmaceuticals, Inc., priority 2006, published 2015).

Columns and labels:
[1] = in vivo

time to reach peak plasma levels [1]: about two | solubility in organic solvents (acetone, dimethylsulfoxide and ethanol): soluble | solubility in alkaline solutions (alkaline solutions containing sodium hydroxide or sodium phosphate): soluble | solubility of topiramate in water (water, room temperature): about 9.8 mg/ml
Structure (SMILES): CC1(C)O[C@@H]2[C@@H](CO[C@@]3(COS(N)(=O)=O)OC(C)(C)O[C@@H]23)O1 [Topiramate]
